Experimental data reported in ChEMBL document CHEMBL1150503, “Design, synthesis and molecular modeling of 3-acylamino-2- Carboxyindole NMDA receptor glycine-site antagonists” (Bioorg Med Chem Lett, 1991).

What follows are compounds tested against Glutamate receptor ionotropic, NMDA 1 (Rattus norvegicus, UniProt P35439) (assay: Ability of compound to compete with [3H]glycine for the strychnine-insensitive NMDA receptor glycine binding sites on rat cortical and hippocampus).
Assay type: tissue-based

SMILES	IC50 [nM]
CN(C(=O)c1ccccc1)c1c(C(=O)O)[nH]c2cc(Cl)ccc12	110
O=C(O)C(=O)Nc1c(C(=O)O)[nH]c2cc(Cl)cc(Cl)c12	170
O=C(O)CSc1c(C(=O)O)[nH]c2cc(Cl)cc(Cl)c12	100
CN(C(=O)C(=O)O)c1c(C(=O)O)[nH]c2cc(Cl)cc(Cl)c12	9500
O=C(O)c1cc(O)c2c(Cl)cc(Cl)cc2n1	140

Continued, values first:

IC50 [nM]	SMILES
270	CN(C(=O)c1ccccc1)c1c(C(=O)O)[nH]c2cc(Cl)cc(Cl)c12
3000	O=C(Nc1c(C(=O)O)[nH]c2cc(Cl)ccc12)c1ccccc1
17000	O=C(Nc1c(C(=O)O)[nH]c2cc(Cl)cc(Cl)c12)c1ccccc1
400	O=C(O)CN(C(=O)c1ccccc1)c1c(C(=O)O)[nH]c2cc(Cl)cc(Cl)c12
